Measured values as given in the supplement of paper PMC10307832.

Assays:
Assay in all cases: relative viability (nuclei count vs DMSO), 5 days (fraction); higher = more cells survive
Tosedostat + Crizotinib = compound: CC(C)C[C@@H](C(=O)N[C@H](C(=O)OC1CCCC1)c1ccccc1)[C@H](O)C(=O)NO [Tosedostat] + C[C@@H](Oc1cc(-c2cnn(C3CCNCC3)c2)cnc1N)c1c(Cl)ccc(F)c1Cl [Crizotinib] (partner 1 µM)
In short: (§1)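 After 5 days of treatment, lung cancer cells in 1536-well plates were fixed and stained in a single step (final 0.05% Triton X-100, 1% formaldehyde, 1 ug/ml Hoechst) and their nuclei counted on 4× images. Treatment had been applied by pin tool the day after seeding as one drug alone or as a fixed anchor-drug dose with five library-drug doses (not always all listed) in √10 steps. Relative viability is the nuclei count of treated wells divided by that of vehicle wells, and values are medians of duplicate plates.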

[1] = compound: CC1=NN=C(O1)C2=NN=C(C=C2)N3CCC(CC3)OC4=C(C=CC(=C4)F)Cl + CS(=O)(=O)N1CCN(Cc2cc3nc(-c4cccc5[nH]ncc45)nc(N4CCOCC4)c3s2)CC1 [Pictilisib] (partner 1 µM)
In short: as §1

Tosedostat + Linsitinib = compound: CC(C)C[C@@H](C(=O)N[C@H](C(=O)OC1CCCC1)c1ccccc1)[C@H](O)C(=O)NO [Tosedostat] + C[C@]1(O)C[C@@H](c2nc(-c3ccc4ccc(-c5ccccc5)nc4c3)c3c(N)nccn32)C1 [Linsitinib] (partner 1 µM)
In short: as §1

Tosedostat + Foretinib = compound: CC(C)C[C@@H](C(=O)N[C@H](C(=O)OC1CCCC1)c1ccccc1)[C@H](O)C(=O)NO [Tosedostat] + COc1cc2c(Oc3ccc(NC(=O)C4(C(=O)Nc5ccc(F)cc5)CC4)cc3F)ccnc2cc1OCCCN1CCOCC1 [Foretinib] (partner 0.25 µM)
In short: as §1

Row | Cell Line | relative viability (Tosedostat + Crizotinib; first compound 0.02 µM) | relative viability (Tosedostat + Crizotinib; first compound 0.06325 µM) | relative viability (Tosedostat + Crizotinib; first compound 0.2 µM) | relative viability (Tosedostat + Crizotinib; first compound 0.6325 µM) | relative viability (Tosedostat + Crizotinib; first compound 2 µM) | relative viability ([1]; first compound 0.253 µM) | relative viability ([1]; first compound 0.8 µM) | relative viability ([1]; first compound 2.53 µM) | relative viability ([1]; first compound 8 µM) | relative viability (Tosedostat + Linsitinib; first compound 0.02 µM) | relative viability (Tosedostat + Linsitinib; first compound 0.06325 µM) | relative viability (Tosedostat + Linsitinib; first compound 0.2 µM) | relative viability (Tosedostat + Linsitinib; first compound 0.6325 µM) | relative viability (Tosedostat + Linsitinib; first compound 2 µM) | relative viability (Tosedostat + Foretinib; first compound 0.02 µM) | relative viability (Tosedostat + Foretinib; first compound 0.06325 µM) | relative viability (Tosedostat + Foretinib; first compound 0.2 µM) | relative viability (Tosedostat + Foretinib; first compound 0.6325 µM) | relative viability (Tosedostat + Foretinib; first compound 2 µM)
1 | SK-MES-1 | 1.06 | 0.988 | 0.983 | 0.909 | 0.856 | 0.263 | 0.377 | 0.341 | 0.384 | 1.2 | 1.05 | 1.06 | 1.01 | 0.983 | 0.691 | 0.889 | 0.914 | 0.873 | 0.86
2 | NCI-H596 | 0.968 | 1.07 | 1.13 | 1.15 | 0.825 | – | 0.352 | 0.366 | 0.363 | 1.21 | 1.07 | 1.22 | 1.05 | 1.06 | 0.905 | 0.872 | 0.938 | 0.764 | 0.839
3 | RERF-LC-KJ | 0.859 | 0.887 | 0.764 | 0.686 | 0.78 | 0.561 | 0.529 | 0.482 | 0.454 | 0.933 | 0.875 | 0.854 | 0.839 | 0.795 | 0.851 | 0.912 | 0.77 | 0.884 | 0.8
4 | LOU-NH91 | 0.86 | 0.752 | 0.767 | 0.695 | 0.694 | – | 0.519 | 0.55 | 0.499 | 0.961 | 0.932 | 0.991 | 0.973 | 0.938 | 0.981 | 0.955 | 0.882 | 0.887 | 0.871
5 | NCI-H1623 | – | – | – | – | – | – | – | – | – | – | – | – | – | – | 0.825 | 0.905 | 0.856 | 0.843 | 0.794
6 | Calu-6 | 0.924 | 0.755 | 0.762 | 0.682 | 0.415 | 0.735 | 0.747 | 0.702 | 0.696 | 0.979 | 0.942 | 0.907 | 0.848 | 0.647 | 1.04 | 0.858 | 0.826 | 0.638 | 0.559
7 | LC-2-ad | 0.47 | 0.454 | 0.493 | 0.378 | 0.348 | 0.423 | 0.416 | 0.4 | 0.386 | 0.865 | 0.743 | 0.866 | 0.823 | 0.805 | 0.987 | 0.939 | 0.941 | 0.842 | 0.806
8 | CAL-12T | 0.702 | 0.594 | 0.727 | 0.533 | 0.661 | 0.392 | 0.553 | 0.327 | 0.191 | 0.728 | 0.762 | 0.739 | 0.709 | 0.642 | 1.15 | 1.04 | 1.22 | 1.11 | 1.05
9 | NCI-H1650 | 0.988 | 0.937 | 1.07 | 0.86 | 1.01 | – | 0.588 | 0.554 | 0.561 | – | – | – | – | – | 1.05 | 0.955 | 1.03 | 0.985 | 0.967
10 | NCI-H1703 | 1.15 | 0.643 | 0.548 | 0.38 | 0.597 | 0.226 | 0.265 | 0.258 | 0.279 | 0.56 | 0.628 | 0.553 | 0.556 | 0.473 | 0.329 | 0.288 | 0.327 | – | 0.322
